Laboratory results taken from paper PMC9144915, “Indole Alkaloids and Chromones from the Stem Bark of Cassia alata and Their Antiviral Activities” (Molecules, 2022).
Converted amounts (≈) assume the structure as drawn. Like-named read-outs stand apart in the source and are kept apart here.

Columns and labels:
Human rotavirus Wa group = assay: Anti-rotavirus assay, prevention of cytopathic effect in MA104 cells (mixed treatment); assay type: cell-based; conditions: for EC50: Human rotavirus, MA104, rotavirus 0.01 MOI, MA-104 cells, 72 h, CPE; for TI (CC50/EC50): therapeutic index
Procedure: In order to study whether the chromones and indole alkaloids from the stem bark of C. alata had more broad antiviral activities, compounds 1–5 were also tested for their anti-rotavirus activity. Their ability to prevent the cytopathic effects of rotavirus in MA104 cells was tested according to our previous literatures, and their effects were measured in parallel with the determination of antiviral activity using ribavirin as a positive control.
(§1) The anti rotavirus activities were tested according to our previous literature. Human rotavirus Wa group was used to infect the cell culture MA104 in vitro, the 50% cytotoxicity concentration (CC50) and half maximal effective concentration (EC50) were evaluated, and ribavirin (C8H12N4O5, CAS No. […], a broad-spectrum antiviral drug) was used as a positive control. MA-104 cells (1 × 10^5 cells per well) were grown in 96-well plates for 48 h. The media were removed and replaced by new media containing serial dilutions of compounds under test. After incubation for 72 h, the media were discarded, and 5.0 μL of MTT solution was added to each well. Plates were then incubated at 37 °C for 4 h. The solution was removed, and 100 μL of 0.04 mol/L HCl-isopropanol was added to each well to dissolve formazan crystals. Using a microplate reader, the absorbance of each well was measured at 540 nm. After subtracting the background absorbance at 655 nm, the 50% CC50 of each compound was estimated by regression analysis.
In the mixed treatment assay, each compound was mixed with a 0.01 multiplicity of infection (MOI) of the rotaviruses at various concentrations (1–160 μg/mL) and incubated at 4 °C for 1 h. The mixtures were inoculated in triplicates onto near confluent MA-104 cell monolayers (1 × 10^5 cells per well) for 1 h with occasional rocking. The solution was removed, and the cells were replaced with eagles minimum essential medium (EMEM) containing 1 μg/mL trypsin. […] EC50 was estimated by regression analysis.

[1] = Cytotoxicity in MA-104 cells (MTT); assay type: cell-based; conditions: African green monkey
Procedure: as §1

[2] = system: tobacco mosaic virus (TMV); assay: Anti-TMV activity, half-leaf method; assay type: in vivo; conditions: in Nicotiana glutinosa; for inhibition at 20 µM: read-out: % Inhibition at 20 µM
Procedure: The anti-TMV activities were tested using the half-leaf method according to our previous studies, and Ningnanmycin (C16H23O8N7, CAS No. 156410-09-2), a commercial cytosine nucleoside peptide type antibiotics for plant disease in China, was used as a positive control. The virus was inhibited by mixing with the solution of tested compounds (20 μM in DMSO). After 30 min, the mixture was inoculated on the left side of the leaves of N. glutinosa, whereas the right side of the leaves was inoculated with the mixture of DMSO solution with the virus as control. The local lesion numbers were recorded 3–4 days after inoculation. Three repetitions were conducted for each compound. The inhibition rates were calculated according to the formula: inhibition rate (%) = [(C − T)/C] × 100%(1) where C is the average number of local lesions of the control and T is the average number of local lesions of the treatment. Ningnanmycin (20 μM in DMSO), a commercial virucide for plant disease in China, was used as a positive control.

TMV = assay: Protective effect on TMV (pretreatment of tobacco plant before inoculation); assay type: in vivo; conditions: Tobacco mosaic virus; tobacco plant pretreated with 20 μM solution for 6 h before inoculation with TMV; read-out: protective effect inhibition rate
Procedure: For compounds with significant activities in half-leaf method assays, their protective effects on TMV were also evaluated by pretreating a tobacco plant with 20 μM solutions of compounds in DMSO, or a solution of DMSO for 6 h before inoculation with TMV.

Row | SMILES | EC50 (Human rotavirus Wa group) | TI (CC50/EC50) (Human rotavirus Wa group) | CC50 at 72 h [1] | IC50 [2] | inhibition at 20 µM [2] | inhibition at 20 µM (TMV) | CC50 at 72 h ([1]; MA-104 cells, 72 h, MTT, read-out: CC50)
1 | COc1cc(C)cc2c1CN(C)C2=O [Compound 1, 4-Methoxy-2,6-dimethylisoindolin-1-one] | 14.6 µg/mL (≈ 76.3 µM) | 9.75 | 142 µg/mL (≈ 745 µM) | 55.3 µM | 26.5 ± 2.8% | – | –
2 | COc1cc(CO)cc2c1CN(C)C2=O [Compound 2, 6-(Hydroxymethyl)-4-methoxy-2-methylisoindolin-1-one] | 14.8 µg/mL (≈ 71.4 µM) | 11.8 | 175 µg/mL (≈ 845 µM) | 22.6 µM | 44.4 ± 3.5% | 40.8% | –
3 | COc1cc(CCCO)cc2c1CN(C)C2=O [Compound 3, 6-(3-Hydroxypropyl)-4-methoxy-2-methylisoindolin-1-one] | 13.6 µg/mL (≈ 57.8 µM) | 15.3 | 208 µg/mL (≈ 885 µM) | 14.2 µM | 66.5 ± 4% | 68.2% | –
4 | CC(=O)Cc1c(CO)ccc2c1OC(C)(C)CC2=O [Compound 4, 7-(Hydroxymethyl)-2,2-dimethyl-8-(2-oxopropyl)chroman-4-one] | 15.5 µg/mL (≈ 59.1 µM) | 12.4 | 192 µg/mL (≈ 734 µM) | 17.9 µM | 52.3 ± 3.6% | 49.3% | –
5 | COc1cc(C)cc2c1CN(Cc1ccc3c(c1CC(C)=O)OC(C)(C)CC3=O)C2=O [Compound 5, 2-((3,4-Dihydro-2,2-dimethyl-4-oxo-8-(2-oxopropyl)-2H-chromen-7-yl)methyl)-4-methoxy-6-methyl-isoindolin-1-one] | 12.8 µg/mL (≈ 30.4 µM) | 12.0 | 154 µg/mL (≈ 364 µM) | 43.4 µM | 31.8 ± 3.3% | – | –
6 | CNCC(=O)N[C@@H](CO)C(=O)N[C@H]1[C@H](O)[C@@H](O)[C@H](n2ccc(N)nc2=O)O[C@@H]1C(N)=O [Ningnanmycin, reference compound] | – | – | – | 37.2 µM | 32.8 ± 3% | – | –
7 | NC(=O)c1ncn([C@@H]2O[C@H](CO)[C@@H](O)[C@H]2O)n1 [Ribavirin, reference compound] | 12.2 µg/mL (≈ 50 µM) | 19.2 | – | – | – | – | 234 µg/mL (≈ 960 µM)
